The test system of data set [1] is HSV-1, influenza virus, poliovirus. The settings on record: cited from earlier work; for antiviral effects in vitro: viruses such as HSV-1, influenza virus, poliovirus.
The conditions of data set [2]: solid form; cited from earlier work.
Data set [3] is described as follows: DHAA stability testing of glycerol solution oxidized with activated charcoal and oxygen (Example 2). The format is physicochemical. To be noted: "100% Glycerol", activated charcoal/oxygen oxidation, room temperature, 191 days. An excerpt:
(§1) AA concentration in solution is commonly measured as the reducing activity of the solution using starch-iodine titration methods that are well-known in the art. […] This method is also well known in the art. DHAA in solution can be converted into AA by reducing agents such as dithiothreitol (DTT) or tris(2-carboxyethyl)phosphine (TCEP), and its concentration is commonly measured spectrophotometrically as the difference in absorbance of a solution subjected to reduction by DTT or TCEP versus a similar solution that is not subjected to a reducing agent. These methods are also well-known in the art, but see Deutsch for examples. In the description, claims, and the following examples, DHAA in the compositions of the invention is the vitamin C that can be measured by the difference in absorbance at 262 nm using TCEP reducing agent.
A solution of AA in pure USP glycerol was subjected to oxidizing conditions by suspending activated charcoal in the solution and then bubbling pure oxygen through the solution. Oxidation of AA during this process was monitored by starch-iodine titration. After the desired amount of AA had been oxidized, the activated charcoal was removed from the solution by centrifugation and filtration. […] The concentration of DHAA in the sample was measured by spectrometry on each testing day. […]

Data set [4] can be described thus: DHAA stability in polyol solutions (general statements). Format: physicochemical.
Data set [5] in a line: DHAA stability testing of ozone-oxidized glycerol/water solutions (Example 1). Format: physicochemical.
Description: as §1
A 15% AA solution in water was prepared by adding 15 grams AA per 100 mL purified water with stirring. A 15% solution of AA in glycerol was prepared by adding 15 grams AA per 100 mL pure USP glycerol and stirring with heat. A corona-discharge type ozone generator with feed-gas of pure oxygen was used to supply an oxidizing gas containing about 5% ozone, and each of the 15% AA solutions was subjected to oxidizing conditions by bubbling the oxidizing gas through the solution using a glass diffuser. The progress of AA oxidation in each solution was monitored by the disappearance of reducing activity as measured by starch-iodine titration. Each solution was subjected to the oxidizing conditions until all (>99%) of the original reducing activity had disappeared. The solution made with pure glycerol was labeled “100% Glycerol,” and the solution made with purified water was labeled “100% Water.” Portions of these two solutions were combined to produce solutions of various glycerol concentrations by weight, specifically “99% Glycerol,” “98% Glycerol,” “97% Glycerol,” “96% Glycerol,” “95% Glycerol”, “90% Glycerol,” and “50% Glycerol.” For example, 99 parts by weight of “100% Glycerol” was combined with 1 part by weight “100% Water” to produce the “99% Glycerol” solution.
Aliquots of each of the solutions prepared above were placed in translucent, screw-capped polyethylene vials and were stored at room temperature. No attempt was made to further protect the vials from ambient indoor light, and each vial contained a headspace of normal air. Each vial was periodically opened to remove a sample for stability testing over the next 229 days. The concentration of DHAA in each sample was measured by spectrometry on each testing day. The initial DHAA concentration of each solution on Day 1 was recorded and assigned a value of 100%, and the concentration on each subsequent stability test day was calculated as the percent remaining of the initial concentration.

A further data set relates to human skin cells. To be noted: cited from earlier work.
The nature of data set [6]: DHAA stability testing of solutions with various AA:DHAA ratios (Example 4). Format: physicochemical. The text has this: AA concentration in solution is commonly measured as the reducing activity of the solution using starch-iodine titration methods that are well-known in the art. […] This method is also well known in the art. DHAA in solution can be converted into AA by reducing agents such as dithiothreitol (DTT) or tris(2-carboxyethyl)phosphine (TCEP), and its concentration is commonly measured spectrophotometrically as the difference in absorbance of a solution subjected to reduction by DTT or TCEP versus a similar solution that is not subjected to a reducing agent. These methods are also well-known in the art, but see Deutsch for examples. In the description, claims, and the following examples, DHAA in the compositions of the invention is the vitamin C that can be measured by the difference in absorbance at 262 nm using TCEP reducing agent. […]
Aliquots of each of the solutions prepared above were placed in transparent, screw-capped glass vials and were stored at room temperature. […] The concentration of DHAA in each sample was measured by spectrometry on each testing day. The initial DHAA concentration of each solution was recorded and assigned a value of 100% (Day 0), and the concentration on each subsequent stability test day was calculated as the percent remaining of the initial concentration.

Data set [7] can be described thus: Absorption of AA and DHAA into skin of human volunteers after topical application (Example 5). The settings on record: 1.4 mg/cm^2, after 4 hours. The format is in vivo. On the procedure: This solution was applied topically to the skin of human volunteers to compare the absorption rate of AA versus DHAA. To assess permeation into the stratum corneum, the solution was diluted 1:1 with water and applied at a rate of 1.4 mg/cm^2 to delineated skin surfaces and allowed 0, 2 or 4 hours for absorption. Each skin surface was then washed with deionized water, and the skin washings were collected and measured for AA and DHAA content. The amount absorbed at 2 and 4 hours was determined by subtraction from the amount present in the 0 hour washings.
Data points are the mean+/−SD of triplicate analyses on 4 subjects. The 2 and 4 hour values are the difference as percentage from the 0 hour (baseline) values, determined by analysis of skin washings. It can be seem that after 4 hours DHAA had absorbed into the skin at a rate about 12 times greater than AA, and that the total vitamin C content of the skin was increased at a much more rapid rate than applying AA alone. (Asterisks on FIG. 21 indicate the following: * Statistically significant at P<0.05. ** Statistically significant at P<0.01).

Data set [8] is described as follows: DHAA stability testing of propylene glycol/water solutions oxidized with Fenton's Reagent (Example 3). Format: physicochemical. The settings on record: room temperature.
Description: as §1
AA was dissolved in purified water to give a highly concentrated solution, and then sufficient 30% hydrogen peroxide was added to oxidize about half of the AA. Iron to catalyze the reaction was provided by addition of ferrous sulfate. Oxidation of the AA was monitored by spectrometry until the expected amount of AA had been oxidized. This solution was labeled “100% Water.” Portions of this solution were combined with portions of pure, USP grade propylene glycol to produce solutions of “97% Propylene Glycol,” “95% Propylene Glycol,” “90% Propylene Glycol,” “80% Propylene Glycol,” “70% Propylene Glycol,” and “50% Propylene Glycol.” For example, 3 parts by volume of the “100% Water” solution were combined with 97 parts by volume propylene glycol to yield the “97% Propylene Glycol” solution.
Aliquots of each of the solutions prepared above were placed in translucent, screw-capped polyethylene vials and were stored at room temperature. […] The concentration of DHAA in each sample was measured by spectrometry on each testing day. The initial DHAA concentration of each solution was recorded and assigned a value of 100% (Day 0), and the concentration on each subsequent stability test day was calculated as the percent remaining of the initial concentration.

Take `O=C1O[C@H]([C@@H](O)CO)C(O)=C1O` [AA, ascorbic acid]: the “antiviral effects in vitro” value in [1] is reported as “antiviral effects”. Also, the “ease of dissolving the solid in water, AA compared with DHAA” value in data set [2] is “far more easily dissolved”.

With `O=C1O[C@H]([C@@H](O)CO)C(=O)C1=O` [DHAA, dehydroascorbic acid], the “antiviral effects of DHAA compared with AA” value in [1] (in vitro) is recorded as “much stronger”. Moreover, in data set [1], the “antiviral effects in vitro” value is reported as “antiviral effects”. The “DHAA stability” value is “excellent long-term stability” in data set [3]; “not stable” in data set [4] (polyol solutions with high water content (water to glycol/polyol at least 1:1)); “stable” in [4] (pure polyol solvents and solutions with polyol content greater than about 50 percent); “preserved very well” in data set [5] (solutions containing high concentrations of glycerol, room temperature, up to 229 days); “preserved very well” in data set [6] (polyol (100% glycerin) solutions with AA:DHAA ratios between 2:1 and 99:1, room temperature, 30 days); “preserved very well” in data set [8] (solutions containing high concentrations of propylene glycol, 31 days). In addition, the “DHAA stability compared with water” value in data set [5] (50% glycerol concentration, room temperature) was “only minor improvement”. Further, the “initial amount of DHAA remaining” value in [5] ("100% Water" solution, room temperature, tested at 20 days) is “less than 10%”; in data set [6] ("Control": 100% water, initial AA:DHAA about 1:1, room temperature, after 3 days), “less than 20%”; in data set [8] ("100% Water" solution (Fenton's Reagent), after 5 days), “less than 20%”. Besides, the “initial DHAA concentration remaining” value in [5] (pure glycerol ("100% Glycerol"), approximately 8 months of storage at room temperature) is “greater than 80%”. The “level absorbed into cells, DHAA relative to AA” value in the data set on human skin cells is 2 times. Also, the “speed of absorption into cells, DHAA relative to AA” value with human skin cells is recorded as “up to 5 times”. In [7], the “rate of absorption into the skin, DHAA relative to AA” value is on record as “about 12 times”. Also, the “DHAA concentration over time” value in [8] (many of the propylene glycol solutions, 31 days) is given as “increased significantly”.

The record behind these values is patent publication US9018252B2, “Stable compositions of dehydroascorbic acid” (priority 2010, dated 2015).
